According to patent US12097380B2, “Shielding of magnetic field as a medical therapy” (Micromed Scientia, Inc., priority 2012, dated 2024):

Legend:
[1] = tested on: most sensitive non-small lung cancer cell; conditions: as reported by Georgiadis et al. 1997, read-out: IC50 to Taxol; cited from earlier work
[2] = tested on: non-small cell lung cancer cells A549; assay: In vitro growth of A549 cells in the presence of Taxol, iron shielding box vs plastic box (CCK-8 cell viability); assay type: cell-based, human
Experimental: (§1) The surrounding magnetic field shielding device and the plastic box used in this experiment were the same as those described in Example 2 above.
The human non-small cell lung cancer cells (A549) and human breast cancer cell (MCF-7) were supplied by the Cell Resource Center, Shanghai Institute of Life Sciences. The cells were maintained in a monolayer and were grown at 37° C. in an atmosphere of 5% CO2 with moisture in RPMI 1640 medium, supplemented with 10% fetal bovine serum. The medium also contained […] Penicillin and 100 mg/L Streptomycin. The cells at exponentially growing phase were used in the experiments.
(§2) The human non-small cell lung cancer cells (A549) or the human breast cancer cells (MCF-7) were grown in 96 well plates. The growth of non-small cell lung cancer cell line and the breast cancer cell line were investigated while being exposed to environmental magnetic field or being shielded from environmental magnetic field. Each cell culture was separated into three equal portions. The first sample was cultured in a surrounding magnetic field shielded box (an iron shielding box). The second sample was cultured in a plastic box, and the third sample was cultured in the absence of any surrounding box as a control. All of the samples were placed in the incubator with an atmosphere containing 5% CO2 and at a temperature of 37° C. The cell growth rates were examined periodically by harvesting the cells and determining cell viability using the cell counting kit-8 and microplate reader RT-6000. The experiments were continued for four to seven days depending on the cell types and the respective growth rates.
(§3) Cell count kit-8 (CCK-8) ([…] manufactured by Dojindo Molecular Technologies, Inc.) allows sensitive colorimetric assays for the determination of cell viability. […]

[3] = tested on: Taxol-resistant non-small cell lung cancer cells A549-T24; assay: In vitro growth of Taxol-resistant A549-T24 cells in the presence of Taxol, iron shielding box vs plastic box (CCK-8 cell viability); assay type: cell-based, human; conditions: for growth of A549-T24 in the iron shielding box slower than the control cultured in a plastic box: 12 nM Taxol in medium, 37° C., shielded vs unshielded
Text: as §1
The protocol described by Kavallaris et al., J. Clin. Invest., 100(5): 1282-1293 (1997)^[13] was followed to culture taxol-resistant human lung carcinoma cells A549. The human non-small cell lung cancer cells A549 were maintained in RPMI 1640 containing 10% FBS and 1% Penicillin-Streptomycin. For inducing its resistance to Taxol, in a stepwise manner, Taxol was added into the culture medium with periodically increasing its concentration. A549 cells were initially exposed to 3 nM of Taxol, and once normal growth was achieved, cells were maintained at this concentration. In two weeks, the Taxol dose was increased by two-fold, such as 3 nM, 6 nM, 12 nM, until the final drug concentration of 24 nM was achieved to develop Taxol-resistant cells. The obtained cells were maintained at a Taxol concentration of 24 nM. These Taxol-resistant cells were named as A549-T24.
as §2, with “The experiments were continued for four to seven days depending on the cell types and the respective growth rates.” left out
as §3

## CC(=O)O[C@H]1C(=O)[C@@]2(C)[C@H]([C@H](OC(=O)c3ccccc3)[C@]3(O)C[C@H](OC(=O)[C@H](O)[C@@H](NC(=O)c4ccccc4)c4ccccc4)C(C)=C1C3(C)C)[C@]1(OC(C)=O)CO[C@@H]1C[C@@H]2O [Taxol, Paclitaxel]
[1]
  IC50: 9.9 nM
[2]; 5 nM Taxol in medium, 37° C., 3 days of incubation, shielded vs unshielded, P<0.001
  growth of A549 in the iron shielding box slower than the control cultured in a plastic box: 16.3%
[2]; 5 nM Taxol in medium, 37° C., 5 days of incubation, shielded vs unshielded, P<0.0005
  growth of A549 in the iron shielding box decreased in comparison to the control cultured in a plastic box: 47.3%
[2]; Homo sapiens, 120 h, A549, under shielding of environmental magnetic field, 5 days, read-out: IC50 of Taxol (drug concentration at which cell growth is suppressed to 50%)
  IC50: ~5 nM
[3]; day 3, P<0.01
  growth of A549-T24 in the iron shielding box slower than the control cultured in a plastic box: 11.2%
[3]; day 4, P<0.001
  growth of A549-T24 in the iron shielding box slower than the control cultured in a plastic box: 10.7%
[3]; Homo sapiens, 96 h, A549-T24, under shielding of surrounding magnetic field, day 4
  IC50: ~10 nM
